Each block holds one molecule with its values, some of them ahead of it. No end group written: not given here.
Assays:
HUVEC = experiment: Toxicity of peptides to cells (S4 Fig); format: cell-based
SKBR3 = experiment: Toxicity of peptides to cells (S4 Fig); format: cell-based
[1] = tested on: subcutaneous SKBR3 tumor xenografts; experiment: In vivo and ex vivo fluorescence imaging of tumor targeting; parameters: species or system Balb/c female nude mice; details: for in vivo tumor fluorescence intensity (binding affinity increase) relative to the control Cy5.5: Cy5.5-labeled peptide 1 μM, 200 μL i.v. tail vein, 30 min postinjection, nude mice with SKBR3 xenografts, average n = 3; for ex vivo tumor fluorescence signal compared to controls: dissected tumors 30 min postinjection of Cy5.5-labeled peptide, n = 3
Experimental: Five to six-week-old Balb/c female nude mice were subcutaneously administered approximately 1 × 10^7 SKBR3 cells into the right hind leg, to establish xenografted tumors. Thereafter, tumor size was periodically measured with a caliper, and mice with tumors of 6−8 mm in diameter were selected for the following small animal experiments. Cy5.5–NHS (Lumiprobe) was used to label peptides. Either Cy5.5-peptides or the control Cy5.5 (1 μM, 200 μL) was intravenously injected into tumor-bearing nude mice via the tail vein. The mice were anesthetized and fluorescence signals measured using the small animal in vivo imaging system 30 min postinjection. Three mice were used for each peptide and for control. Near-infrared fluorescence imaging of tumor-bearing nude mice were taken with an exposure time of 50 ms, using the Cy5.5 filter sets (excitation: 673 nm; emission: 707 nm), and the intensities were quantified using the same software. Then, fluorescence images of the main organs and of tumors dissected from nude mice were individually taken as above.

HER2/biotin complex = HER2/biotin complex (Homo sapiens, UniProt P04626); experiment: OBOC peptide library screening with magnetic beads; format: binding; details: library of 5184 sequences, HER2/biotin and magnetic streptavidin microspheres, 37°C, 2 h each step
Excerpt: The OBOC peptide library was designed based on binding free energies derived from the MD simulations of single and double mutants that are lower than the HER2/4665 complex. These mutations are in the 4665 fragment of pertuzumab from 55 to 64: EWVADVNPNX55X56X57X58X59X60N61X62X63X64K. According to computational calculations, the V, S, and M mutants have lower energies for X55. This is also the case for G, M, and Y for X56; G, A, and V for X57; S, F, and H for X58; I and R for X59; Y and W for X60; Q and F for X62; R, W, Q, and V for X63; and F and R for X64. The result is a 3*3*3*3*2*2*2*4*2 = 5184 library capacity.
The OBOC library synthesis and screening was performed as per the previously used method. Briefly, HBTU (4 mmol) and Fmoc-amino acid (4 mmol) reagent was dissolved in 0.4 mol/L N-Methyl morpholine in N,N-dimethylformamide and coupled with the solid phase supporting materials for 40 min during the coupling step. A 20% piperidine was used to remove the Fmoc group for 10 min in the deprotection step. During the OBOC library synthesis, the amino acid coupling process was carried out in the “split” step, while the deprotection process was carried out in the “pool” step. After elongation, a trifluoroacetic acid cleavage reagent was introduced to cleave the side chain protection group of each residue. […]

[2] = tested on: SKBR3 cell line with high HER2 expression; experiment: Confocal fluorescence imaging of cells incubated with Cy5.5-labeled peptides; format: cell-based; details: 50 μM Cy5.5-labeled peptide, 4°C, 20 min
Experimental: Four cell lines (SKBR3, MCF7, MDA-MB-468, and 293A) were seeded at a density of 3000 cells/mL into culture dishes and allowed to culture overnight with 5% CO2 at 37°C. Cell nuclei was stained with 1 mM Hoechst 33342 in 200 μL cell culture medium and incubated at 37°C for 15 min. Then, cells were incubated in culture medium with 50 μM Cy5.5-labeled peptide at 4°C for 20 min. Finally, cells were washed three times with cold PBS for observation. An Olympus FV1000-IX81 confocal-laser scanning microscope was used for confocal fluorescence imaging. An FV5-LAMAR 633 nm laser was used as the excitation source, and the emission wave length was collected at 690 nm. Hoechst 33342 was excited by a FV5-LD405-2 405 nm laser and collected within the range of 422–472 nm. All microscope parameters were identical for all observations of the binding ability of the various peptides.

[3] = molecular target: T1, HER2 protein (human epidermal growth factor receptor 2) (human, UniProt P04626 23-652); experiment: SPR; SPR imaging (SPRi, PlexArray HT); peptides immobilised through an N-terminal cysteine on a bare gold chip, blocked with 5% nonfat milk; HER2 or HSA in PBST flowed at 0.625 to 20 μg/mL; KD from fitting association-dissociation curves; details: both partners purified
T1 construct: Human epidermal growth factor receptor 2 (HER2), bought protein; Surmise: the bought protein is probably a soluble extracellular domain, possibly tagged; source: bought: Sino Biological Inc., China

[4] = molecular target: HER2 on cells (SKBR3, high expression; MCF7, medium expression) (human (endogenous in SKBR3), UniProt P04626 23-1255); experiment: cell-based or functional assay

OBOC library screening result (bead identified by MALDI-TOF-MS/MS) (HER2/biotin complex): positive
Molecule: EWVADVNPNSGGFIYNQYFK [58F63Y]
toxicity to HUVEC cells (HUVEC): no toxicity
toxicity to SKBR3 cells (SKBR3): no toxicity
in vivo tumor fluorescence intensity (binding affinity increase) relative to the control Cy5.5 [1]: 5.09 fold
ex vivo tumor fluorescence signal compared to controls [1]: significantly high fluorescence signals

Molecule: Cy5.5-58F63Y: peptide 58F63Y labeled with Cy5.5 (Cy5.5–NHS) (EWVADVNPNSGGFIYNQYFK; also: Cy5.5 label (via Cy5.5-NHS), position not given here)
fluorescent intensity of Cy5.5-peptides in SKBR3 cells [2]: strongest fluorescence

Molecule: EWVADVNPNSGGSIYNQRFK [compound 4665]
toxicity to HUVEC cells (HUVEC): no toxicity
toxicity to SKBR3 cells (SKBR3): no toxicity
in vivo tumor fluorescence intensity (binding affinity increase) relative to the control Cy5.5 [1]: 3.52 fold
ex vivo tumor fluorescence signal compared to controls [1]: significantly high fluorescence signals

Kd [3]: 64.6 µM
B1: peptide 55V (4665 with Ser55 to Val) with N-terminal cysteine, for SPRi (peptide)
peptide: CEWVADVNPNVGGSIYNQRFK
notes: a cysteine residue linked to the amino terminal, for attachment to the bare gold chip; numbers count on: pertuzumab (first letter is 46); source: synthetic peptide (Fmoc solid phase synthesis, HPLC purified)

Kd [3]: 8.16 µM
B2: peptide 55V63Y with N-terminal cysteine, for SPRi (peptide)
peptide: CEWVADVNPNVGGSIYNQYFK
notes: as for B1

Kd [3]: 1.32 µM
B3: peptide 58F (4665 with Ser58 to Phe) with N-terminal cysteine, for SPRi (peptide)
peptide: CEWVADVNPNSGGFIYNQRFK
notes: as for B1

Kd [3]: 9.86 µM
B4: peptide 4665 (pertuzumab fragment Glu46 to Lys65) with N-terminal cysteine, for SPRi (peptide)
peptide: CEWVADVNPNSGGSIYNQRFK
notes: a cysteine residue linked to the amino terminal, for attachment to the bare gold chip; fragment of pertuzumab from Glu46 to Lys65 (beta hairpin); numbers count on: pertuzumab in PDB 1S78; source: synthetic peptide (Fmoc solid phase synthesis, HPLC purified)

Kd [3]: 1.54 µM
B5: peptide 63Y (4665 with Arg63 to Tyr) with N-terminal cysteine, for SPRi (peptide)
peptide: CEWVADVNPNSGGSIYNQYFK
notes: as for B1

Kd [3]: 0.536 µM
B6: peptide 58F63Y with N-terminal cysteine, for SPRi (peptide)
peptide: CEWVADVNPNSGGFIYNQYFK
notes: as for B1

in vivo fluorescence intensity of SKBR3 tumor xenografts in nude mice 30 min after injection of Cy5.5-58F63Y, relative to the control Cy5.5 [4]: 5.09 fold
B7: Cy5.5-labeled peptide 58F63Y (peptide)
peptide: EWVADVNPNSGGFIYNQYFK
modifications: also: Cy5.5 label (via Cy5.5-NHS), position not given here

From paper PMC5390981, “Peptide probes derived from pertuzumab by molecular dynamics modeling for HER2 positive tumor imaging” (PLoS Computational Biology, 2017)
